Data: patent US20230071672A1, “PRESERVING FLUOROPHORE FUNCTION” (Lions VisionGift, priority 2021, published 2023)

Legend:
[1] = in water and alcohol; cited from earlier work
[2] = stored over night at 4° C., or frozen and thawed; cited from earlier work
corneas = assay: Staining of corneas for 15 minutes and fluorescence microscopy imaging after storage of the stain; format: cell-based
Procedure: Calcein AM (2.5 μg/mL) was prepared with 1.7% sodium hyaluronic acid in a balanced salt solution. Three corneas were stained for 15 minutes and imaged under the same conditions. The cornea shown in FIG. 1A was stained with the mixture immediately after preparation. The cornea shown in FIG. 1B was stained with the mixture after the mixture had been stored frozen for 5 days. The cornea shown in FIG. 1C was stained with the mixture after the mixture had been stored frozen for 3 months.
Calcein-AM (2.5 μg/mL) was prepared according to manufacturer's recommendations. All corneas were stained for 15 minutes and imaged under the same conditions.

calcein AM
solubility [1]: only slightly soluble
functionality after storage [2]: lose functionality
fluorescence signal with storage time (corneas; stored under 4° C. refrigeration, protected from light, overnight, five days, one month, three months, FIGS. 2B-2E): loses intensity with the storage time length
fluorescence signal after storage (corneas; three months' storage under 4° C. refrigeration, FIG. 2E): completely lost
